{
  "source": "patent US20210015793A1",
  "about": "“COMPOUNDS FOR TREATING CNS- AND NEURODEGENERATIVE DISEASES” (ETH ZURICH, priority 2018, published 2021)",
  "key": {"female B6 mice": {"test_system": "female B6 mice", "assay": "Aging-induced decrease in fertility in female B6 mice", "type": "in vivo, mouse", "conditions": "8 mg/kg/d in drinking water from 3 to 21 months of age, vs untreated controls", "method": "(A,B) Treatment of B6 mice with Compound-1 (A) and Compound-1F (B) at a daily dose of 8 mg/kg/d in drinking water was started at an age of 3 months and continued until the end of the observation period at 21 months. The age of the male breeder(s) was <10 months. The number of offspring per month is given (±s.d.; n=5; p=0.0167 for Compound-1, and p=0.0032 for Compound-1F compared to untreated controls; unpaired, two-tailed Student's t-test)."}, "[1]": {"assay": "28-day repeated oral dosing safety in German shepherd dogs", "type": "in vivo, dog", "conditions": "for sedation / ECG: P-R interval, QRS interval and Q-T interval before vs after treatment / blood levels of AST, ALT, ALP, BUN and fasting blood glucose / hematologic parameters (Hb, HCT, RBCs, MCV, MCHC) before vs after treatment / total number of white blood cells / systolic and diastolic blood pressure / heart rate / tolerability: dogs; for ECG: P-R interval, QRS interval and Q-T interval before vs after treatment / blood levels of AST, ALT, ALP, BUN and fasting blood glucose / hematologic parameters (Hb, HCT, RBCs, MCV, MCHC) before vs after treatment / total number of white blood cells: once daily 60, 120 and 200 mg for 28 days; for systolic and diastolic blood pressure: once daily 60, 120 and 200 mg/d for 28 days; for heart rate: repeated oral dosing for 28 days; for tolerability: therapeutic dose range; for body weight: male and female dogs, once daily 20, 60, 120 and 200 mg/d for 28 days", "method": "Dog serum concentrations of Compound-1, Compound-1F and Compound-4 were determined with serum isolated from the blood of German shepherd dogs (age: 8-9 months) taken at different time points (2 h, 4 h, 6 h, 8, 10 h, 24 h) after oral drug intake. The steady-state serum concentrations of Compound-1, Compound-1F and Compound-4 were determined in mice with blood isolated at the end of the study by cardiac puncture. Serum proteins were removed by acetonitrile precipitation, and compounds were extracted by chloroform before separation on an HPLC-C18 column (Poroshell 120 EC-C18, Agilent) with an HPLC system (Agilent 1100 Series) and detection at OD 280 nm, for Compound-1 and Compound-1F. Detection of Compound-4 was performed at OD 310 nm. The same extraction method was also used to determine Compound-1F in the serum of healthy human research participants. Dog hematology and biochemical parameters were determined by the Center of Applied Analytical and Veterinary Studies, Cairo, Egypt. ECG and blood pressure were measured by Dr. Mohamed Elsaed, Electrocardiography Unit, Faculty of Veterinary Medicine, Cairo University. The study was approved by the ethical committee of the Center of Applied and Veterinary Studies, Cairo, Egypt. Clinical laboratory parameters of human research participants were determined by the Rabaa El Adaweya Medical Central Hospital, Cairo, Egypt."}, "male B6 mice [2]": {"test_system": "male B6 mice", "assay": "Aging-induced deterioration of male sperm quality in B6 mice", "type": "in vivo, mouse", "conditions": "18-month-old male B6 mice, 15 months treatment; for epididymal sperm count / sperm vitality (eosin-nigrosin staining) / total sperm motility: 8 mg/kg/d in drinking water", "method": "Sperm count, and motility were determined by microscopic semen analysis of male B6 mice at an age of 3 months and 18 months similarly as described (Komori et al., Reprod. Med. Biol. 5, 195-200, 2006). Sperm cells were isolated from male B6 mice from the epididymis as described (Esposito et al., Proc. Nat. Acad. Sci. U.S.A. 101, 2993-2998, 2004). Sperm concentration was determined with a Neubauer hemocytometer. Percentage of sperm motility was determined with a 10 microl sample loaded onto a clean slide glass and covered with a coverslip. Sperm motility was evaluated under positive phase-contrast microscopy at a total magnification of ×400, and graded according to the WHO criteria (Komori et al., Reprod. Med. Biol. 5, 195-200, 2006), i.e. percentage of motile sperm cells was counted, and the percentage of progressive and not progressive sperm motility was determined. At least 300 spermatozoa were evaluated. Spermatozoa viability was determined by eosin-nigrosine staining technique. A drop of spermatozoa suspension in PBS was mixed with one drop of aqueous eosin Y solution (1%), and incubated for 15 s. Thereafter, two drops of 10% aqueous nigrosine solution were added and mixed. An aliquot of this mixture was transferred to a glass slide, a thin smear was made, and air dried. Stained spermatozoa were examined under a light microscope, and the percentage of live sperm cells was determined. Live sperm cells appear white whereas dead sperm cells are coloured pink. Treatment of male B6 mice with Compound-1 and Compound-1F (8 mg/kg/d in drinking water) was started at an age of 3 months and continued until the end of the observation period at an age of 18 months."}, "male B6 mice [3]": {"test_system": "male B6 mice", "assay": "Aging-induced deterioration of male sperm quality in B6 mice", "type": "in vivo, mouse", "conditions": "18-month-old male B6 mice, 15 months treatment"}, "Tg2576 AD mice": {"test_system": "Tg2576 AD mice", "assay": "SDS-insoluble hippocampal Abeta1-40 and Abeta1-42 by sandwich ELISA in Tg2576 mice", "type": "in vivo, mouse", "conditions": "18 months-old Tg2576 mice, 6 months of treatment, 8 mg/kg/d in drinking water", "method": "(§1) For quantitative analysis of SDS-insoluble hippocampal contents of Abeta1-40 and Abeta1-42, hippocampi were dissected out from brains isolated on ice from 18-month-old Tg2576 mice without and with treatment for 6 months with Compound-1 and Compound-4. Isolated hippocampi were pulverized under liquid nitrogen, and SDS-insoluble Abeta peptides were extracted by serial extraction in 14 microL/mg wet weight of Tris buffer (50 mM Tris, 200 nM NaCl, 2 mM EDTA, pH 7.2, supplemented with 1× protease inhibitors/1× phosphatase inhibitors), followed by extraction with Triton X-100-containing buffer (Tris extraction buffer with 0.1% Triton X-100), and followed by extraction with 2% SDS. The remaining pellet was extracted with formic acid (70% formic acid in Tris buffer supplemented with 1× protease inhibitors/1× phosphatase inhibitors). The resulting formic-acid extract was neutralized with 1 M Tris buffer, pH 11, and used for quantitative determination of Abeta1-40 and Abeta1-42 by sandwich ELISA relative to a standard curve according to the protocol of the manufacturer (KHB3481 and KHB3441, Thermo Fisher Scientific, Waltham, Mass., USA).\nas §1, with “mM” for “nM”, “and with” for “relative to”"}},
  "data": [
    {"molecule": "O=C(C1=C(O)C(c2ccccc2)N(c2ccc3c(c2)OCO3)C1=O)C1CC1", "note": "(stereo not drawn) [Compound-1, 1-(1,3-benzodioxol-5-yl)-4-(cyclopropane-carbonyl)-3-hydroxy-2-phenyl-2H-pyrrol-5-one]", "values": [
      {"measurement": "female fertility (number of offspring per month)", "setting": "female B6 mice", "result": "retarded aging-induced decrease in fertility"},
      {"measurement": "sedation", "setting": "[1]; daily dose of 120 mg/d", "result": "no sedation"},
      {"measurement": "sedation", "setting": "[1]; highest dose of 200 mg", "result": "showed sedation"},
      {"measurement": "ECG: P-R interval, QRS interval and Q-T interval before vs after treatment", "setting": "[1]", "result": "not significantly different"},
      {"measurement": "blood levels of AST, ALT, ALP, BUN and fasting blood glucose", "setting": "[1]", "result": "did not significantly alter"},
      {"measurement": "hematologic parameters (Hb, HCT, RBCs, MCV, MCHC) before vs after treatment", "setting": "[1]", "result": "not significantly different"},
      {"measurement": "total number of white blood cells", "setting": "[1]", "result": "not altered"},
      {"measurement": "systolic and diastolic blood pressure", "setting": "[1]", "result": "did not significantly change systolic and diastolic blood pressure"},
      {"measurement": "heart rate", "setting": "[1]", "result": "did not significantly affect heart rate"},
      {"measurement": "tolerability", "setting": "[1]", "result": "excellent tolerability"},
      {"measurement": "body weight", "setting": "[1]", "result": "did not significantly change body weight"},
      {"measurement": "decrease in progressive sperm motility", "setting": "male B6 mice [2]", "result": "largely prevented"},
      {"measurement": "epididymal sperm count", "setting": "male B6 mice [2]", "result": "retarded the aging-induced decrease in epididymal sperm count"},
      {"measurement": "sperm vitality (eosin-nigrosin staining)", "setting": "male B6 mice [2]", "result": "maintained sperm vitality"},
      {"measurement": "total sperm motility", "setting": "male B6 mice [2]", "result": "improved total sperm motility"},
      {"measurement": "aging-induced epididymal degeneration (H&E sections of cauda epididymis)", "setting": "male B6 mice [3]", "result": "prevented"},
      {"measurement": "hippocampal content of Abeta1-40", "setting": "Tg2576 AD mice", "result": "significantly decreased"},
      {"measurement": "hippocampal content of Abeta1-42", "setting": "Tg2576 AD mice", "result": "significantly decreased"}
    ]},
    {"molecule": "O=C(C1=C(O)C(c2ccc(F)cc2)N(c2ccc3c(c2)OCO3)C1=O)C1CC1", "note": "(stereo not drawn) [Compound-1F, 1-(1,3-Benzodioxol-5-yl)-4-(cyclopropanecarbonyl)-2-(4-fluorophenyl)-3-hydroxy-2H-pyrrol-5-one]", "values": [
      {"measurement": "female fertility (number of offspring per month)", "setting": "female B6 mice", "result": "retarded aging-induced decrease in fertility"},
      {"measurement": "sedation", "setting": "[1]; daily dose of 120 mg/d", "result": "no sedation"},
      {"measurement": "sedation", "setting": "[1]; highest dose of 200 mg", "result": "showed sedation"},
      {"measurement": "ECG: P-R interval, QRS interval and Q-T interval before vs after treatment", "setting": "[1]", "result": "not significantly different"},
      {"measurement": "blood levels of AST, ALT, ALP, BUN and fasting blood glucose", "setting": "[1]", "result": "did not significantly alter"},
      {"measurement": "hematologic parameters (Hb, HCT, RBCs, MCV, MCHC) before vs after treatment", "setting": "[1]", "result": "not significantly different"},
      {"measurement": "total number of white blood cells", "setting": "[1]", "result": "not altered"},
      {"measurement": "systolic and diastolic blood pressure", "setting": "[1]", "result": "did not significantly change systolic and diastolic blood pressure"},
      {"measurement": "heart rate", "setting": "[1]", "result": "did not significantly affect heart rate"},
      {"measurement": "tolerability", "setting": "[1]", "result": "excellent tolerability"},
      {"measurement": "body weight", "setting": "[1]", "result": "did not significantly change body weight"},
      {"measurement": "decrease in progressive sperm motility", "setting": "male B6 mice [2]", "result": "largely prevented"},
      {"measurement": "epididymal sperm count", "setting": "male B6 mice [2]", "result": "retarded the aging-induced decrease in epididymal sperm count"},
      {"measurement": "sperm vitality (eosin-nigrosin staining)", "setting": "male B6 mice [2]", "result": "maintained sperm vitality"},
      {"measurement": "total sperm motility", "setting": "male B6 mice [2]", "result": "improved total sperm motility"},
      {"measurement": "aging-induced epididymal degeneration (H&E sections of cauda epididymis)", "setting": "male B6 mice [3]", "result": "prevented"},
      {"measurement": "hippocampal content of Abeta1-40", "setting": "Tg2576 AD mice", "result": "significantly decreased"},
      {"measurement": "hippocampal content of Abeta1-42", "setting": "Tg2576 AD mice", "result": "significantly decreased"}
    ]}
  ]
}
